Measured values from patent US11129840B2, “Methods for identifying novel dosing regimens” (Zavante Therapeutics, Inc., priority 2017, dated 2021).
≈ marks a conversion by molar mass, not a printed value.

Tests used:
[1] = Phase I single dose pharmacokinetics in healthy adult subjects; assay type: in vivo, human; conditions: for half-life / CL renal / Vd / AUC(0-inf) / Cmax / Tmax: plasma
Protocol: Materials/methods: Phase I, open-label study evaluating IV (ZTI-01) and PO (Monurol®) FOS in healthy adult subjects. […] Blood and urine samples were collected serially before and through 48 hours post-dose and analyzed via LC/MS-MS. Noncompartmental analyses were performed via WinNonlin. Safety was monitored throughout the course of the study.

[2] = system: CAZ-NS PSA; assay: Reference agar dilution MIC, resistant SENTRY isolates; assay type: cell-based, Pseudomonas aeruginosa
Protocol: (§1) Utilizing existing interpretative criteria for the marketed oral agent (dosed at 3 g) for analysis purposes, FOS susceptibility (S) was determined for recent resistant GN and GP clinical isolates including vancomycin-resistant Enterococcus faecium (VREM) and E. faecalis (VREF); methicillin-resistant Staphylococcus aureus (MRSA) and MR coagulase negative staphylococci (MR-CoNS), Escherichia coli (EC) and Klebsiella pneumoniae (KPN) containing extended spectrum beta-lactamases (ESBL) or were carbapenem resistant (CR); and), Pseudomonas aeruginosa (PSA) non-susceptible to ceftazidime (CAZ-NS) or to meropenem (MER-NS). […] Isolates were collected from hospitalized patients in the US as a part of the SENTRY surveillance program, 2013-2015.

[3] = system: MER-NS PSA; assay: as above; assay type: cell-based, Pseudomonas aeruginosa
Protocol: as §1

[4] = system: EC that were CR; assay: as above; assay type: cell-based, Escherichia coli
Protocol: as §1

[5] = system: Carbapenem-resistant Enterobacteriaceae (CRE) clinical isolates; assay: Agar dilution susceptibility, CRE clinical isolates; assay type: cell-based
[6] = system: 5 EC (4 ESBL), 3 KPN (2 CR), and 2 PSA; assay: MIC by agar dilution, isolates of the thigh infection study; assay type: cell-based; conditions: 10 isolates
Protocol: 5 EC (4 ESBL), 3 KPN (2 CR), and 2 PSA were used. MICs were determined by agar dilution. […] PK/PD index determination was performed using a dose fractionation (DF) study design. […] The dose-response data was analyzed using the Emax Hill equation.

[7] = system: Enterobacteriaceae; assay: MIC distribution for 1,091 Enterobacteriaceae isolates from USA; assay type: cell-based
[8] = system: Carbapenem-resistant Enterobacteriaceae (CRE) clinical isolates; assay: Susceptibility testing, CRE clinical isolates; assay type: cell-based
[9] = human, in vivo, 3 g PO (Monurol), mean ± SD
[10] = human, 1 g IV (ZTI-01), mean ± SD
[11] = human, 3 g PO (Monurol), mean ± SD
[12] = human, 8 g IV (ZTI-01), mean ± SD

Structure (SMILES): C[C@@H]1O[C@@H]1P(=O)(O)O [FOS, fosfomycin]
- fraction of the dose excreted in urine after 48 hours ([1]; 1 g IV): 74%
- CLT ([1]; 1 g IV (ZTI-01), mean ± SD): 8.7 ± 1.7 L/h
- fraction of the dose excreted in urine after 48 hours ([1]; 3 g PO): 37%
- CLT/F ([1]; 3 g PO (Monurol), mean ± SD): 17.0 ± 4.7 L/h
- fraction of the dose excreted in urine after 48 hours ([1]; 8 g IV): 80%
- CLT ([1]; 8 g IV (ZTI-01), mean ± SD): 7.8 ± 1.4 L/h
- dose dependence of plasma PK ([1]; between the 1 g and 8 g IV doses): approximately linear and proportional
- half-life ([1]; human, in vivo, 1 g IV (ZTI-01), mean ± SD): 2.4 ± 0.4 h
- Vd/F [1, 9]: 204 ± 70.7 L
- half-life [1, 9]: 9.04 ± 4.5 h
- half-life ([1]; human, in vivo, 8 g IV (ZTI-01), mean ± SD): 2.8 ± 0.6 h
- CL renal [1, 10]: 110 mL/min
- Vd [1, 10]: 29.7 ± 5.7 L
- CL renal [1, 11]: 108 mL/min
- CL renal [1, 12]: 105 mL/min
- Vd [1, 12]: 31.5 ± 10.4 L
- AUC(0-inf) [1, 10]: 120 ± 28.5 µg·h/mL
- Cmax [1, 10]: 44300 ± 7600 ng/mL
- Tmax [1, 10]: 1.1 ± 0.05 h
- AUC(0-inf) [1, 11]: 191 ± 57.6 µg·h/mL
- Cmax [1, 11]: 26800 ± 6400 ng/mL
- Tmax [1, 11]: 2.25 ± 0.4 h
- AUC(0-inf) [1, 12]: 1060 ± 192 µg·h/mL
- Cmax [1, 12]: 370000 ± 61900 ng/mL
- Tmax [1, 12]: 1.08 ± 0.01 h
- MIC ([2]; Pseudomonas aeruginosa): > 256 µg/mL
- MIC90 ([2]; Pseudomonas aeruginosa): 128 µg/mL (≈ 927 µM)
- MIC50 ([2]; Pseudomonas aeruginosa, 38 CAZ-NS PSA): 64 µg/mL (≈ 464 µM)
- No. of isolates with FOS MIC≤64 μg/mL ([2]; of 38 CAZ-NS PSA): 32
- MIC ([3]; Pseudomonas aeruginosa): > 256 µg/mL
- MIC90 ([3]; Pseudomonas aeruginosa): 128 µg/mL (≈ 927 µM)
- MIC50 ([3]; Pseudomonas aeruginosa, 42 MER-NS PSA): 64 µg/mL (≈ 464 µM)
- No. of isolates with FOS MIC≤64 μg/mL ([3]; of 42 MER-NS PSA): 34
- MIC range ([4]; 9 of 11 isolates): 0.5 to 32 µg/mL
- MIC ([4]; Escherichia coli): > 256 µg/mL
- % of isolates susceptible to FOS [5]: 94%
- MIC90 [5]: 512 µg/mL (≈ 3710 µM)
- MIC50 ([5]; 50 isolates): 2 µg/mL (≈ 14.5 µM)
- MIC range ([5]; C-A R isolates): 1 to 64 µg/mL
- MIC ([5]; C-A R isolates, read-out: Median MIC): 8 µg/mL (≈ 57.9 µM)
- MIC ([5]; FOS R isolate with fosA2 and SNP in glpT, read-out: MIC): 256 µg/mL (≈ 1850 µM)
- MIC ([5]; FOS-R isolate harboring fosA3, read-out: MIC): > 1020 µg/mL
- MIC ([5]; third FOS-R isolate (OXA-181+, CTXM-15+Kp), read-out: MIC): 128 µg/mL (≈ 927 µM)
- MIC range [6]: 1 to 16 µg/mL
- MIC90 [7]: 16 mgL
- MIC ([8]; FOS R isolate with fosA2 and SNP in glpT): 256 µg/mL (≈ 1850 µM)
- MIC ([8]; FOS-R isolate harboring fosA3): > 1020 µg/mL
- No. of isolates with FOS MIC>64 μg/mL ([8]; of 50 isolates): 3
- MIC ([8]; third FOS-R isolate (OXA-181+, CTXM-15+Kp)): 128 µg/mL (≈ 927 µM)
